In the NIST ThermoML archive (doi:10.1021/je060271a):
Numbers after ± are expanded uncertainties.

Conditions: Liquid, Vibrating tube method

CCCCC(=O)OCC(COC(=O)CCCC)(COC(=O)CCCC)COC(=O)CCCC [pentaerythritol tetrapentanoate]
Conditions | mass density [kg/m3]
303.16 K, 794.63 kPa | 1011.4 ± 1.2
303.16 K, 4758.7 kPa | 1013.9 ± 1.2
303.16 K, 10737 kPa | 1017.8 ± 1.2
303.16 K, 10776 kPa | 1017.7 ± 1.2
303.16 K, 19666 kPa | 1023 ± 1.2
303.16 K, 25722 kPa | 1026.7 ± 1.2
303.16 K, 33332 kPa | 1030.7 ± 1.2
303.16 K, 33572 kPa | 1030.8 ± 1.2
303.16 K, 34311 kPa | 1031.2 ± 1.2
303.16 K, 34317 kPa | 1031.3 ± 1.3
303.16 K, 34322 kPa | 1031.4 ± 1.3
303.16 K, 34329 kPa | 1031.2 ± 1.3
303.16 K, 34349 kPa | 1031.2 ± 1.3
323.14 K, 736.7 kPa | 995.1 ± 1.2
323.14 K, 775.7 kPa | 995.1 ± 1.2
323.14 K, 800.8 kPa | 995.2 ± 1.2
323.14 K, 1023.7 kPa | 995.3 ± 1.2
323.14 K, 1214.2 kPa | 995.6 ± 1.2
323.14 K, 1242.9 kPa | 995.4 ± 1.2
323.14 K, 1267.4 kPa | 995.5 ± 1.2
323.14 K, 1292.7 kPa | 995.4 ± 1.2
323.14 K, 1352.1 kPa | 995.6 ± 1.2
323.14 K, 1554.7 kPa | 995.8 ± 1.2
323.14 K, 1591.2 kPa | 995.7 ± 1.2
323.14 K, 1625.4 kPa | 995.6 ± 1.2
323.14 K, 1652.3 kPa | 995.8 ± 1.2
323.14 K, 1677.1 kPa | 995.8 ± 1.2
323.14 K, 1847.7 kPa | 995.8 ± 1.2
323.14 K, 1899.2 kPa | 995.8 ± 1.2
323.14 K, 1926.8 kPa | 996 ± 1.2
323.14 K, 1959.1 kPa | 996 ± 1.2
323.14 K, 1986.5 kPa | 996.1 ± 1.2
323.14 K, 2181.7 kPa | 996.1 ± 1.2
323.14 K, 2215.2 kPa | 996.1 ± 1.2
323.14 K, 2249 kPa | 996.2 ± 1.2
323.14 K, 2284.1 kPa | 996.3 ± 1.2
323.14 K, 2935.8 kPa | 996.6 ± 1.2
323.14 K, 2965.1 kPa | 996.7 ± 1.2
323.14 K, 3225.9 kPa | 996.8 ± 1.2
323.14 K, 3237 kPa | 996.9 ± 1.2
323.14 K, 3248.4 kPa | 996.9 ± 1.2
323.14 K, 3385 kPa | 996.9 ± 1.2
323.14 K, 7926.5 kPa | 1000.3 ± 1.2
323.14 K, 7971.9 kPa | 1000.2 ± 1.2
323.14 K, 9459.5 kPa | 1001.1 ± 1.2
323.14 K, 9766.4 kPa | 1001.5 ± 1.2
323.14 K, 9799.5 kPa | 1001.4 ± 1.2
323.14 K, 9832.9 kPa | 1001.5 ± 1.2
323.14 K, 9906.9 kPa | 1001.6 ± 1.2
323.14 K, 9941.6 kPa | 1001.6 ± 1.2
323.14 K, 10052 kPa | 1001.6 ± 1.2
323.14 K, 10094 kPa | 1001.7 ± 1.2
323.14 K, 10244 kPa | 1001.9 ± 1.2
323.14 K, 11507 kPa | 1002.6 ± 1.2
323.14 K, 12708 kPa | 1003.4 ± 1.2
323.14 K, 13903 kPa | 1004.3 ± 1.2
323.14 K, 14014 kPa | 1004.2 ± 1.2
323.14 K, 14206 kPa | 1004.4 ± 1.2
323.14 K, 14241 kPa | 1004.3 ± 1.2
323.14 K, 19359 kPa | 1007.7 ± 1.2
323.14 K, 19418 kPa | 1007.7 ± 1.2
323.14 K, 19454 kPa | 1007.7 ± 1.2
323.14 K, 19485 kPa | 1007.9 ± 1.2
323.14 K, 28758 kPa | 1013.5 ± 1.2
323.14 K, 28848 kPa | 1013.6 ± 1.2
323.14 K, 28889 kPa | 1013.5 ± 1.2
323.14 K, 28930 kPa | 1013.6 ± 1.2
323.14 K, 29171 kPa | 1013.8 ± 1.2
323.14 K, 29205 kPa | 1013.9 ± 1.2
323.14 K, 29234 kPa | 1013.8 ± 1.2
323.14 K, 29268 kPa | 1014 ± 1.2
323.14 K, 29296 kPa | 1013.9 ± 1.2
323.15 K, 106.09 kPa | 994.8 ± 1.2
323.15 K, 106.1 kPa | 994.7 ± 1.2
323.15 K, 106.26 kPa | 994.6 ± 1.2
323.15 K, 106.44 kPa | 994.7 ± 1.2
323.15 K, 107.13 kPa | 994.6 ± 1.2
323.15 K, 108 kPa | 994.6 ± 1.2
323.15 K, 108.53 kPa | 994.7 ± 1.2
323.15 K, 110.43 kPa | 994.6 ± 1.2
323.15 K, 112.87 kPa | 994.7 ± 1.2
323.15 K, 115.82 kPa | 994.7 ± 1.2
323.15 K, 118.77 kPa | 994.7 ± 1.2
323.15 K, 121.05 kPa | 994.6 ± 1.2
323.15 K, 124.52 kPa | 994.7 ± 1.2
323.15 K, 129.04 kPa | 994.6 ± 1.2
323.15 K, 133.91 kPa | 994.8 ± 1.2
323.15 K, 140.34 kPa | 994.7 ± 1.2
323.15 K, 147.99 kPa | 994.8 ± 1.2
323.15 K, 159.99 kPa | 994.7 ± 1.2
323.15 K, 173.53 kPa | 994.6 ± 1.2
323.15 K, 190.4 kPa | 994.6 ± 1.2
323.15 K, 218.21 kPa | 994.8 ± 1.2
323.15 K, 249.16 kPa | 994.8 ± 1.2
323.15 K, 296.4 kPa | 994.7 ± 1.2
323.15 K, 338.3 kPa | 994.8 ± 1.2
323.15 K, 358.5 kPa | 994.8 ± 1.2
323.15 K, 373.8 kPa | 994.9 ± 1.2
323.15 K, 387.5 kPa | 994.7 ± 1.2
323.15 K, 401.6 kPa | 994.8 ± 1.2
323.15 K, 416.9 kPa | 994.9 ± 1.2
323.15 K, 429 kPa | 995 ± 1.2
323.15 K, 441.9 kPa | 995 ± 1.2
323.15 K, 455.3 kPa | 995 ± 1.2
323.15 K, 472.5 kPa | 994.9 ± 1.2
323.15 K, 488.1 kPa | 994.9 ± 1.2
323.15 K, 504.6 kPa | 995 ± 1.2
323.15 K, 525.8 kPa | 995 ± 1.2
323.15 K, 543.7 kPa | 995 ± 1.2
323.15 K, 564 kPa | 995 ± 1.2
323.15 K, 582.3 kPa | 995 ± 1.2
323.15 K, 601.7 kPa | 995 ± 1.2
323.15 K, 627.6 kPa | 995.1 ± 1.2
323.15 K, 645.4 kPa | 995.1 ± 1.2
323.15 K, 665.2 kPa | 995.1 ± 1.2
323.15 K, 681.1 kPa | 995.1 ± 1.2
323.15 K, 697.1 kPa | 995 ± 1.2
323.15 K, 718 kPa | 995.2 ± 1.2
323.15 K, 755.5 kPa | 995 ± 1.2
323.15 K, 823.3 kPa | 995.1 ± 1.2
323.15 K, 846.7 kPa | 995.1 ± 1.2
323.15 K, 871.2 kPa | 995.4 ± 1.2
323.15 K, 903.5 kPa | 995.2 ± 1.2
323.15 K, 930.1 kPa | 995.3 ± 1.2
323.15 K, 958.1 kPa | 995.3 ± 1.2
323.15 K, 984.8 kPa | 995.4 ± 1.2
323.15 K, 1006.3 kPa | 995.3 ± 1.2
323.15 K, 1041.8 kPa | 995.4 ± 1.2
323.15 K, 1060 kPa | 995.3 ± 1.2
323.15 K, 1082.2 kPa | 995.4 ± 1.2
323.15 K, 1101.7 kPa | 995.3 ± 1.2
323.15 K, 1121.7 kPa | 995.4 ± 1.2
323.15 K, 1146.9 kPa | 995.5 ± 1.2
323.15 K, 1168.2 kPa | 995.4 ± 1.2
323.15 K, 1191 kPa | 995.4 ± 1.2
323.15 K, 1319.1 kPa | 995.2 ± 1.2
323.15 K, 1380.2 kPa | 995.5 ± 1.2
323.15 K, 1416.2 kPa | 995.6 ± 1.2
323.15 K, 1447.4 kPa | 995.6 ± 1.2
323.15 K, 1479.7 kPa | 995.8 ± 1.2
323.15 K, 1512.7 kPa | 995.6 ± 1.2
323.15 K, 1698.1 kPa | 995.8 ± 1.2
323.15 K, 1720.3 kPa | 995.8 ± 1.2
323.15 K, 1747.2 kPa | 995.8 ± 1.2
323.15 K, 1770.3 kPa | 995.8 ± 1.2
323.15 K, 1793.7 kPa | 995.8 ± 1.2
323.15 K, 1822.9 kPa | 995.9 ± 1.2
323.15 K, 1873.2 kPa | 995.9 ± 1.2
323.15 K, 2015.2 kPa | 996.1 ± 1.2
323.15 K, 2044.7 kPa | 996.1 ± 1.2
323.15 K, 2080.6 kPa | 996 ± 1.2
323.15 K, 2111.5 kPa | 996.1 ± 1.2
323.15 K, 2143.5 kPa | 996.3 ± 1.2
323.15 K, 2327.6 kPa | 996.2 ± 1.2
323.15 K, 2364.9 kPa | 996.1 ± 1.2
323.15 K, 2402.4 kPa | 996.3 ± 1.2
323.15 K, 2448.3 kPa | 996.3 ± 1.2
323.15 K, 2487.7 kPa | 996.4 ± 1.2
323.15 K, 2528.3 kPa | 996.4 ± 1.2
323.15 K, 2578.1 kPa | 996.3 ± 1.2
